Assay results from patent publication US5945508A, “Substance P treatment for immunostimulation” (priority 1997, dated 1999).

What was measured:
immune system organs = test: Organ weight and total cell recovery; format: in vivo, C57B16 mice; set-up: Spleen Cell Number / Thymus Cell Number / LN Cell Number / BM Cell Number: scale not given here; Spleen Weight / Thymus Weight: unit not given here
Protocol: (§1) At 24 hours after the last exposure, the animals were sacrificed and the effects of exposure on the immune system examined. Immune organs (spleen, thymus, blood, lymph nodes and bone marrow) were recovered and analyzed for effects on organ weight, total cell numbers, immune cell populations (by differentials), and lymphocyte subpopulations (by flow cytometry). Assays were also performed to examine the effects of exposure on immune function. […] Similar effects on immune cell subpopulations were also observed in lymph nodes. In the thymus it appeared that the immature CD4^+ CD8^+ cells were differentially lost due to exposure. […] However, these effects are prevented or ameliorated by treatment of the animals with Substance P.
For each of the immune system organs (spleen, lymph nodes and thymus) the wet weight is determined after removal using a microbalance. After processing of the organs into single cell suspensions the cell numbers and viabilities are determined using trypan blue staining. Histochemical differentials are performed at this time. Cell numbers and viabilities are again determined after centrifugation of the cell suspensions through density gradients to obtain mononuclear cells.

immune system = test: Immunotoxicology of exposure to jet fuel JP-8; format: in vivo, C57B16 mice; conditions: JP-8 exposed animals treated with Substance P
Protocol: as §1

Spleen B Cell = test: Mitogenesis of spleen B cells, LP-BM5 mouse AIDS model; format: in vivo, C57BL6 mice
Protocol: (§2) C57BL6 mice, average weight of 25-30 grams, were infected with the LP-BM5 murine leukemia retrovirus to simulate the human AIDS virus. […] The mice were divided into two groups; LP-BM5 virus only and LP-BM5 virus+substance P aerosol therapy at 1 μM concentration. The mice were killed at 4 and 8 weeks postinoculation.
The proliferation of splenic B and T cells induced by mitogens was determined by incorporation of radioactive thymidine. Splenocytes in 0.1 ml of cell culture medium (1×10 ^7 cells/ml) were cultured in 96-well flat-bottom cultured plates with ConA and lipopolysaccharide, 5 micrograms/ml). The cells were incubated at 37° C., 5% CO2 incubator for 72 hours for ConA-induced T cell proliferation, and then pulsed with ^3 H-thymidine (1 microCurie/well). After 4 hours for radioactive thymidine uptake, the cells were harvested by a cell sample harvester. Radioactivity was determined by a liquid scintillation counter (Tri-Carb, 2200CA). The T and B cell mitogenesis values were recorded as counts per min in 1×10^7 cells/ml.

[1] = tested on: LP-BM5 murine leukemia retrovirus; test: Spleen changes and total cell numbers, LP-BM5 mouse AIDS model; format: in vivo, C57BL6 mice
Protocol: as §2

[2] = tested on: lymphocyte subpopulations; test: Flow cytometric analyses (FACS); format: in vivo, C57B16 mice
Protocol: as §1
One- and two-color FACS analyses are performed using a Becton-Dickinson FACStar Plus flow cytometer. Cells are stained with the indicated monoclonal antibodies according to standard procedures (Harris et al., id). Cells alone and cells reacted with conjugated isotype control, irrelevant mAbs are used as controls. Data is presented as the percentage of cells staining positive for each individual mAb.

[3] = JP-8 1000 mg/m^3 + SP, nSP (1 nM), CP or RP

## Substance P [SP]
Immune system organs; JP-8 250 mg/m^3 + SP
  BM Cell Number: 23
  LN Cell Number: 10.8
  Spleen Cell Number: 40
  Spleen Weight: 0.16
  Thymus Cell Number: 70
  Thymus Weight: 0.06
Immune system organs; [3]
  BM Cell Number: 21
  LN Cell Number: 5.0
  Spleen Cell Number: 72
  Spleen Weight: 0.14
  Thymus Cell Number: 78
  Thymus Weight: 0.11
Immune system organs; JP-8 2500 mg/m^3 + SP
  BM Cell Number: 19
  LN Cell Number: 5.0
  Spleen Cell Number: 87
  Spleen Weight: 0.10
  Thymus Cell Number: 96
  Thymus Weight: 0.08
Immune system organs; Substance P at both 1 uM and 1 nM doses
  reversal of effects of JP-8 exposure on the immune system: significantly reversed
Immune system organs; dose 0 (no JP-8) + SP or CP
  BM Cell Number: 9
  Spleen Cell Number: 30
  Spleen Weight: 0.10
  Thymus Cell Number: 18
  Thymus Weight: 0.04
Immune system
  reversal of effects of JP-8 exposure on all measured parameters: invariably reversed the effects on all measured parameters of JP-8 exposure to almost normal levels
Spleen B Cell; 4 weeks after LP-BM5 infection, SP aerosol 1 μM 3 days/week, 25 Hours in Culture
  Spleen B Cell Mitogenesis: 2063 (448) counts per min
Spleen B Cell; 4 weeks after LP-BM5 infection, SP aerosol 1 μM 3 days/week, 48 Hours in Culture
  Spleen B Cell Mitogenesis: 1369 (231) counts per min
Spleen B Cell; 4 weeks after LP-BM5 infection, SP aerosol 1 μM 3 days/week, 72 Hours in Culture
  Spleen B Cell Mitogenesis: 1642 (158) counts per min
Spleen B Cell; 8 weeks post-infection with LP-BM5, SP aerosol 1 μM, 72 hours in culture
  Spleen B Cell Mitogenesis: 3227 (854) counts per min
[1]; 4 weeks after LP-BM5 infection, SP aerosol 1 μM
  total cell numbers (spleen) versus LP-BM5 group: not accompanied by an increase in total cell numbers
[1]; LP-BM5 mouse model, substance P aerosol therapy
  changes in the mouse spleens: significant changes in the mouse spleens
[2]; JP-8 250 mg/m^3 + SP
  BM CD3 positive cells: 13%
  BM CD4 positive cells: 10%
  BM CD8 positive cells: 3%
  BM CD45 positive cells: 48%
  BM MAC1 positive cells: 10%
  LN CD3 positive cells: 85%
  LN CD4 positive cells: 48%
  LN CD8 positive cells: 12%
  LN CD45 positive cells: 13%
  LN MAC1 positive cells: 1%
  PBL CD3 positive cells: 59%
  PBL CD4 positive cells: 15%
  PBL CD8 positive cells: 6%
  PBL CD45 positive cells: 16%
  PBL MAC1 positive cells: 1%
  Spleen CD3 positive cells: 62%
  Spleen CD4 positive cells: 27%
  Spleen CD8 positive cells: 3%
  Spleen CD45 positive cells: 21%
  Spleen MAC1 positive cells: 1%
  Thymus CD3 positive cells: 24%
  Thymus DN cells: 5%
  Thymus DP cells: 68%
  Thymus SP4 cells: 22%
  Thymus SP8 cells: 5%
[2]; [3]
  BM CD3 positive cells: 14%
  BM CD4 positive cells: 9%
  BM CD8 positive cells: 2%
  BM CD45 positive cells: 31%
  BM MAC1 positive cells: 26%
  LN CD3 positive cells: 86%
  LN CD4 positive cells: 29%
  LN CD8 positive cells: 11%
  LN CD45 positive cells: 22%
  LN MAC1 positive cells: 0%
  PBL CD3 positive cells: 61%
  PBL CD4 positive cells: 23%
  PBL CD8 positive cells: 10%
  PBL CD45 positive cells: 22%
  PBL MAC1 positive cells: 3%
  Spleen CD3 positive cells: 34%
  Spleen CD4 positive cells: 18%
  Spleen CD8 positive cells: 10%
  Spleen CD45 positive cells: 20%
  Spleen MAC1 positive cells: 5%
  Thymus CD3 positive cells: 20%
  Thymus DN cells: 10%
  Thymus DP cells: 65%
  Thymus SP4 cells: 16%
  Thymus SP8 cells: 6%
[2]; JP-8 2500 mg/m^3 + SP
  BM CD3 positive cells: 6%
  BM CD4 positive cells: 3%
  BM CD8 positive cells: 6%
  BM CD45 positive cells: 24%
  BM MAC1 positive cells: 34%
  Spleen CD3 positive cells: 38%
  Spleen CD4 positive cells: 26%
  Spleen CD8 positive cells: 14%
  Spleen CD45 positive cells: 31%
  Spleen MAC1 positive cells: 3%
  Thymus CD3 positive cells: 16%
  Thymus DN cells: 19%
  Thymus DP cells: 64%
  Thymus SP4 cells: 15%
  Thymus SP8 cells: 5%
[2]; dose 0 (no JP-8) + SP or CP
  BM CD3 positive cells: 12%
  BM CD4 positive cells: 11%
  BM CD8 positive cells: 1%
  BM CD45 positive cells: 48%
  Spleen CD3 positive cells: 42%
  Spleen CD4 positive cells: 26%
  Spleen CD8 positive cells: 11%
  Spleen CD45 positive cells: 23%
  Spleen MAC1 positive cells: 1%
  Thymus CD3 positive cells: 10%
  Thymus DN cells: 7%
  Thymus DP cells: 84%
  Thymus SP4 cells: 6%
  Thymus SP8 cells: 2%
